{"source": "patent US10485256B2", "about": "“Stevia sweetener with improved solubility with a cyclodextrin” (EPC Natural Products Co., Ltd., priority 2014, dated 2019)", "key": {"[1]": {"assay": "Stability test: period that the system remains in solution form, without precipitation", "assay_type": "physicochemical", "details": "25° C.; for stability (period the system remain a solution form, without precipitation): Concentration 1 weight %", "protocol": "Concentration of RA was weight (g) in 100 g of water.\nThe stability test was performed at ambient temperature (25° C.), and was in water.\nThe acidic aqueous conditions were formulated with citric acid and water, and the pH was 3.0.\nConcentration of RA+RD was weight (g) in 100 g of water.\nThe stability test was performed at ambient temperature (25° C.) and was in water.\nConcentration of RA+RB+RD was weight (g) in 100 g of water.\nConcentration of RB or RD was weight (g) in 100 g of water."}, "[2]": {"assay": "Dissolution property at room temperature", "assay_type": "physicochemical", "details": "concentration 1%; without a solublizer (no cyclodextrin); water"}, "[3]": {"details": "γ-cyclodextrin mole ratio 1, water"}}, "data": [{"molecule": "C=C1C[C@@]23CC[C@H]4[C@@](C)(CCC[C@@]4(C)C(=O)O[C@@H]4O[C@H](CO)[C@@H](O)[C@H](O)[C@H]4O)[C@@H]2CC[C@]1(O[C@@H]1O[C@H](CO)[C@@H](O)[C@H](O[C@@H]2O[C@H](CO)[C@@H](O)[C@H](O)[C@H]2O)[C@H]1O[C@@H]1O[C@H](CO)[C@@H](O)[C@H](O)[C@H]1O)C3", "note": "[RA, Rebaudioside A]", "values": [{"measurement": "stability (period the system remains in solution form, without precipitation)", "setting": "[1]; acidic (citric acid, pH 3.0), RA 3.5 weight %, γ-cyclodextrin mole ratio 1", "value": 120, "unit": "h"}, {"measurement": "stability (period the system remains in solution form, without precipitation)", "setting": "[1]; neutral, RA 3 weight %, γ-cyclodextrin mole ratio 0.5, water", "value": 1, "unit": "h"}, {"measurement": "stability (period the system remains in solution form, without precipitation)", "setting": "[1]; neutral, RA 3 weight %, γ-cyclodextrin mole ratio 0.6, water", "value": 2, "unit": "h"}, {"measurement": "stability (period the system remains in solution form, without precipitation)", "setting": "[1]; neutral, RA 3 weight %, γ-cyclodextrin mole ratio 0.7, water", "value": 24, "unit": "h"}, {"measurement": "stability (period the system remains in solution form, without precipitation)", "setting": "[1]; neutral, RA 3 weight %, γ-cyclodextrin mole ratio 0.8, water", "value": 52, "unit": "h"}, {"measurement": "stability (period the system remains in solution form, without precipitation)", "setting": "[1]; neutral, RA 3 weight %, γ-cyclodextrin mole ratio 0.85, water", "value": 92, "unit": "h"}, {"measurement": "stability (period the system remains in solution form, without precipitation)", "setting": "[1]; neutral, RA 3.5 weight %, γ-cyclodextrin mole ratio 0, water", "value": 2, "unit": "h"}, {"measurement": "stability (period the system remains in solution form, without precipitation)", "setting": "[1]; neutral, RA 3.5 weight %, γ-cyclodextrin mole ratio 0.85, water", "value": 160, "unit": "h"}, {"measurement": "stability (period the system remains in solution form, without precipitation)", "setting": "[1]; neutral, RA 3.5 weight %, γ-cyclodextrin mole ratio 1, water", "value": 336, "unit": "h"}]}, {"molecule": "C=C1C[C@@]23CC[C@H]4[C@@](C)(CCC[C@@]4(C)C(=O)O[C@@H]4O[C@H](CO)[C@@H](O)[C@H](O)[C@H]4O[C@@H]4O[C@H](CO)[C@@H](O)[C@H](O)[C@H]4O)[C@@H]2CC[C@]1(O[C@@H]1O[C@H](CO)[C@@H](O)[C@H](O[C@@H]2O[C@H](CO)[C@@H](O)[C@H](O)[C@H]2O)[C@H]1O[C@@H]1O[C@H](CO)[C@@H](O)[C@H](O)[C@H]1O)C3", "note": "[RD, Rebaudioside D]", "values": [{"measurement": "stability (period the system remain a solution form, without precipitation)", "setting": "[1]; [3]", "value": 48, "unit": "h"}, {"measurement": "formation of a solution", "setting": "[2]", "value": "did not form a solution"}]}, {"molecule": "Rebaudioside B [RB]", "values": [{"measurement": "stability (period the system remain a solution form, without precipitation)", "setting": "[1]; [3]", "value": 0.333, "unit": "h"}, {"measurement": "formation of a solution", "setting": "[2]", "value": "did not form a solution"}]}]}
